Test results: US8822447B2, “Indazole compounds useful as ketohexokinase inhibitors” (Janssen Pharmaceutica NV, priority 2010, dated 2014)
pIC50: −log10 of the molar value. Where a name gives a salt, the structure may show the parent alone.

Target: KHK (Homo sapiens (Human), UniProt P50053)
Experiment: In Vitro KHK Enzyme Assay (HTMS);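 also: primary screen measuring inhibition of KHK-catalysed conversion of D-fructose into fructose 1-phosphate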
Type: biochemical
Details: 200 μM fructose, 100 μM ATP, 2 nM KHK, 60 min at 25° C.; Fructose-1-P detected by high throughput mass spectrometry
Description: An enzymatic assay was developed to measure KHK-mediated conversion of D-fructose to Fructose-1-P (F-1-P) using High Throughput Mass Spectroscopy (HTMS) as a means of product detection. This assay served as a primary screen to evaluate the ability to inhibit KHK enzyme activity and it has been adapted to high throughput mass spectrometry (HTMS, BioTrove RapidFire™) format for higher throughput.
The compounds to be tested were dosed in 12-points concentration from 511 μM to 0.5 μM. […] The assay was carried out in 384-well plate format.

KHK, sequence (P50053 whole entry): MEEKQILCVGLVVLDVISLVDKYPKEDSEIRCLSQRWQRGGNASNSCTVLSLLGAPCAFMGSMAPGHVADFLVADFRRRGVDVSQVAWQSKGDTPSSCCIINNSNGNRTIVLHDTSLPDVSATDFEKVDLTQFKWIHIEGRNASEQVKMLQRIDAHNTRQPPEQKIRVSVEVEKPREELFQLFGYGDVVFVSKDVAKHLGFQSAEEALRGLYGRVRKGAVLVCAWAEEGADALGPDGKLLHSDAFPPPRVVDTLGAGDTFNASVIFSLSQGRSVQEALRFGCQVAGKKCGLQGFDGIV

Row | Compound | pIC50
1 | CSc1nn(-c2ccccc2)c2cc(C(=O)c3ccc4ncn(C)c4c3)ccc12 [Compound 171, (3-Methyl-3H-benzoimidazol-5-yl)-(3-methylsulfanyl-1-phenyl-1H-indazol-6-yl)-methanone] | < 5.00
2 | COc1ccc(-n2nc(SC)c3ccc(N4CCN(C5CCNCC5)CC4)cc32)cc1 [Compound 106, 1-(4-Methoxy-phenyl)-3-methylsulfanyl-6-(4-piperidin-4-yl-piperazin-1-yl)-1H-indazole] | 6.44
3 | CSc1nn(-c2ccccc2)c2cc(N3CCN(C4CCNC4)CC3)ccc12 (centres unmarked) [Compound 22, 3-(Methylthio)-1-phenyl-6-(4-(pyrrolidin-3-yl)piperazin-1-yl)-1H-indazole hydrochloride] | 5.35
4 | CCc1nn(-c2ccccc2)c2cc(N3CCNC(C)C3)ccc12 (centres unmarked) [Compound 56, 3-Ethyl-6-(3-methylpiperazin-1-yl)-1-phenyl-1H-indazole] | 6.07
5 | CSc1nn(-c2ccccc2)c2cc(N3CCN(c4ccncc4)CC3)ccc12 [Compound 29, 3-(Methylthio)-1-phenyl-6-(4-(pyridin-4-yl)piperazin-1-yl)-1H-indazole] | 6.52
6 | CSc1nn(-c2ccccc2)c2cc(C=CC3CCNCC3)ccc12 [Compound 153, 3-Methylsulfanyl-1-phenyl-6-(2-piperidin-4-yl-vinyl)-1H-indazole] | 6.40
7 | CCc1nn(-c2ccccc2)c2nc(C3CCNCC3)nc(O)c12 [Compound 91, 3-Ethyl-1-phenyl-6-piperidin-4-yl-1H-pyrazolo[3,4-d]pyrimidin-4-ol hydrochloride] | 5.62
8 | CSc1nn(-c2ccccc2)c2cc(C=CC3CCNCC3)ccc12 [Compound 141, 3-Methylsulfanyl-1-phenyl-6-(2-piperidin-4-yl-vinyl)-1H-indazole] | 6.64
9 | Cc1nn(-c2ccccc2)c2nc(C3CCCN(C4CNC4)C3)nc(O)c12 (centres unmarked) [Compound 85, 6-(1-Azetidin-3-yl-piperidin-3-yl)-3-methyl-1-phenyl-1H-pyrazolo[3,4-d]pyrimidin-4-ol] | 5.13
10 | Cc1nn(-c2ccccc2)c2cc(N3CC(N4CCNCC4)C3)ccc12 [Compound 60, 3-Methyl-1-phenyl-6-(3-(piperazin-1-yl)azetidin-1-yl)-1H-indazole hydrochloride] | 5.64
11 | CCc1nn(-c2ccccc2)c2cc(NC(=O)c3ccc4[nH]cnc4c3)ccc12 [Compound 38, N-(3-Ethyl-1-phenyl-1H-indazol-6-yl)-1H-benzo[d]imidazole-5-carboxamide] | 6.03
12 | Cc1nn(-c2ccccc2)c2cc(N3CCNCC3)ccc12 [Compound 59, 3-Methyl-1-phenyl-6-(piperazin-1-yl)-1H-indazole] | 5.89
13 | CSc1nn(-c2ccccc2)c2cc(N3CCC(N4CCNCC4)C3)ccc12 (centres unmarked) [Compound 19, 3-(Methylthio)-1-phenyl-6-(3-(piperazin-1-yl)pyrrolidin-1-yl)-1H-indazole hydrochloride] | 6.25
14 | CCc1nn(-c2ccccc2)c2nc(C3CCN(C4CCNC4)CC3)nc(O)c12 (centres unmarked) [Compound 94, 3-Ethyl-1-phenyl-6-(1-pyrrolidin-3-yl-piperidin-4-yl)-1H-pyrazolo[3,4-d]pyrimidin-4-ol hydrochloride] | 5.28
15 | Cc1nn(-c2ccccc2)c2cc(N3CCN(c4ccncc4)CC3)ccc12 [Compound 65, 3-Methyl-1-phenyl-6-(4-(pyridin-4-yl)piperazin-1-yl)-1H-indazole hydrochloride] | 5.11
16 | CSc1nn(-c2ccccc2)c2cc(N3CCN(C(=O)C4CCCN4)CC3)ccc12 (centres unmarked) [Compound 33, (4-(3-(Methylthio)-1-phenyl-1H-indazol-6-yl)piperazin-1-yl)(pyrrolidin-2-yl)methanone hydrochloride] | 5.27

Row | Compound | pIC50
17 | Cc1nn(-c2ccccc2)c2nc(C3CCN(C4CCNC4)CC3)nc(O)c12 (centres unmarked) [Compound 88, 3-Methyl-1-phenyl-6-(1-pyrrolidin-3-yl-piperidin-4-yl)-1H-pyrazolo[3,4-d]pyrimidin-4-ol hydrochloride] | 5.82
18 | CSc1nn(-c2ccccc2)c2cc(C(O)C3CCNCC3)ccc12 (centres unmarked) [Compound 136, (3-Methylsulfanyl-1-phenyl-1H-indazol-6-yl)-piperidin-4-yl-methanol] | < 5.70
19 | COc1ccc(-n2nc(SC)c3ccc(C(=O)c4ccc5ncn(C)c5c4)cc32)cc1 [Compound 173, [1-(4-Methoxy-phenyl)-3-methylsulfanyl-1H-indazol-6-yl]-(3-methyl-3H-benzoimidazol-5-yl)-methanone] | < 5.00
20 | CSc1nn(-c2ccccc2)c2cc(C3=CCN(C(=O)CCN)CC3)ccc12 [Compound 149, 3-Amino-1-[4-(3-methylsulfanyl-1-phenyl-1H-indazol-6-yl)-3,6-dihydro-2H-pyridin-1-yl]-propan-1-one] | 6.32
21 | CSc1nn(-c2ccccc2)c2cc(N3CC(N4CCNCC4)C3)ccc12 [Compound 15, 3-(Methylthio)-1-phenyl-6-(3-(piperazin-1-yl)azetidin-1-yl)-1H-indazole hydrochloride] | 6.25
22 | CSc1nn(-c2ccccc2)c2cc(NC(=O)C3CNC3)ccc12 [Compound 2, N-(3-(Methylthio)-1-phenyl-1H-indazol-6-yl)azetidine-3-carboxamide hydrochloride] | 6.66
23 | CSc1nn(-c2ccccc2)c2cc(N3CCNCC3)ccc12 [Compound 1, 3-(Methylsulfanyl)-1-phenyl-6-piperazin-1-yl-1H-indazole HCl salt] | 6.25
24 | COc1ccc(-n2nc(SC)c3ccc(C4=CCNCC4)cc32)cc1 [Compound 140, 1-(4-Methoxy-phenyl)-3-methylsulfanyl-6-(1,2,3,6-tetrahydro-pyridin-4-yl)-1H-indazole] | 7.05
25 | CSc1nn(-c2ccccc2)c2cc(N3CCN(C(=O)c4ccccn4)CC3)ccc12 [Compound 30] | 4.79
26 | Cc1nn(-c2ccccc2)c2nc(-c3ccc(N4CCNCC4)cc3)cc(O)c12 [Compound 97, 3-Methyl-1-phenyl-6-(4-piperazin-1-yl-phenyl)-1H-pyrazolo[3,4-b]pyridin-4-ol] | 5.57
27 | CSc1nn(-c2ccccc2)c2cc(N3CCN(CC4CCNC4)C3=O)ccc12 (centres unmarked) [Compound 27, 1-(3-(Methylthio)-1-phenyl-1H-indazol-6-yl)-3-(pyrrolidin-3-ylmethyl)imidazolidin-2-one hydrochloride] | 5.29
28 | CSc1nn(-c2ccccc2)c2cc(C(=O)c3ccc4nonc4c3)ccc12 [Compound 174, Benzo[1,2,5]oxadiazol-5-yl-(3-methylsulfanyl-1-phenyl-1H-indazol-6-yl)-methanone] | < 5.00
29 | CSc1nn(-c2ccccc2)c2cc(C=Cc3ccncc3)ccc12 [Compound 154, 3-Methylsulfanyl-1-phenyl-6-(2-pyridin-4-yl-vinyl)-1H-indazole] | < 5.00
30 | CSc1nn(-c2ccccc2)c2cc(CCC3CCNCC3)ccc12 [Compound 185, 3-Methylsulfanyl-1-phenyl-6-(2-piperidin-4-yl-ethyl)-1H-indazole] | 6.04
31 | CCc1nn(-c2ccccc2)c2cc(N3CCC(N4CCNCC4)C3)ccc12 (centres unmarked) [Compound 43, 3-Ethyl-1-phenyl-6-(3-(piperazin-1-yl)pyrrolidin-1-yl)-1H-indazole hydrochloride] | 5.63
32 | CSc1nn(-c2ccccc2)c2cc(NC(=O)C3(N)CCNCC3)ccc12 [Compound 157, 4-Amino-piperidine-4-carboxylic acid (3-methylsulfanyl-1-phenyl-1H-indazol-6-yl)-amide] | 6.52
